Source: patent publication US8329420B2, “Screening method for a substance that binds to an intracellular region of TLR4” (Hiroshima University, priority 2006, dated 2012)

Legend:
[1] = target: T1, TLR4 (wild-type and point mutants, TLR4 C747A) (Homo sapiens, UniProt O00206); experiment: Binding of ^3H-compound A to FLAG-TLR4 wild-type and point mutants expressed in COS-7 cells (anti-FLAG immunoprecipitation, autoradiography); parameters: expressed in transfected cells; conditions: concluded from mutant binding, COS-7 cells (FIG. 2)
T1 sequence (O00206 24-839 C747A): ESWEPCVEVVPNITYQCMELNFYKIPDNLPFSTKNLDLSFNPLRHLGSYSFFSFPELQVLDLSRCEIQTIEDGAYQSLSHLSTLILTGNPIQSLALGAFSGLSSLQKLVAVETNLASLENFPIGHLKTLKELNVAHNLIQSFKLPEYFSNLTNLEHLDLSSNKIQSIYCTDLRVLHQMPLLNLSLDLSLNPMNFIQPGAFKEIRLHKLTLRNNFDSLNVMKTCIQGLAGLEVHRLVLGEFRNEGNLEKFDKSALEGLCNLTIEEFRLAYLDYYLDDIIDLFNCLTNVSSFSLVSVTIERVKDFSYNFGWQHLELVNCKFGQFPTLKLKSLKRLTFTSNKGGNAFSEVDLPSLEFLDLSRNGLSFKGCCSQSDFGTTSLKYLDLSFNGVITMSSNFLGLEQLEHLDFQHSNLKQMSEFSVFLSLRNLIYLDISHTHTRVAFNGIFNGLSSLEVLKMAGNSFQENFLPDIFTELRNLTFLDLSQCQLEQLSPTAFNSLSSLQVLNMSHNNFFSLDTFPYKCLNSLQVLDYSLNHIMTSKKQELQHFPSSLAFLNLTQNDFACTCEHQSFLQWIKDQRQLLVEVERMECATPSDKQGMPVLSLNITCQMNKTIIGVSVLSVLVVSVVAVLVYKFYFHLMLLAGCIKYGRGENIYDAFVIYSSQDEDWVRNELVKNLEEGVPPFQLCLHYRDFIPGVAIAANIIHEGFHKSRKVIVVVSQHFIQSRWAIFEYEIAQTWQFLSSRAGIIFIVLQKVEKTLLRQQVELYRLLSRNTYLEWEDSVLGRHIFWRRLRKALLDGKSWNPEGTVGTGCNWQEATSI
Text: (§1) cDNA encoding TLR4 was obtained by a conventional method using PCR, and incorporated into expression vector pEFBos. Each point mutant was produced using QuikChange II Site-directed Mutagenesis Kit (manufactured by Stratagene). A mismatch corresponding to a mutation was introduced into both ends of a primer according to the manual of the kit. The produced primers are as follows (mutant introduction sites are underlined). Thereafter, a mutant was produced according to the manual and a competent cell was transformed therewith. Single colonies were picked up, a plasmid was prepared according to a conventional method and DNA sequence was confirmed to give a plasmid containing each mutant TLR4.
(§2) Escherichia coli was transformed with the produced plasmids, about 500-700 μg thereof was each purified using EndoFree (R) Plasmid Maxi Kit (Quiagen). […]
(§3) The immunoprecipitated was applied to SDS-PAGE to separate the protein, and the gel after migration was immersed in a blotting buffer for 15 min to remove SDS. […] The luminescence of the band was photographed on an X ray film, Kodak Biomax-MS, and the protein expression level was confirmed (FIG. 2; the upper panel). The photographed PVDF membrane was washed with PBS-T, photosensitized on imaging plate TR-2040 for 7 days, and the amount of ^3H bound to the expressed protein was measured using BAS-2500 (FUJIFILM Corporation).

[2] = target: T2, TLR4 (wild-type and point mutants, TLR4 C747A) (Homo sapiens, UniProt O00206, C747A); experiment: as above; parameters: expressed in transfected cells; conditions: 100 nmol/L, 6 hr, COS-7 cells; only this mutant among 1CA-4CA, PH, 1KR-9KR (FIG. 2)
T2 sequence (O00206 24-839 C747A): as above
Text: as §1, §2, §3

[3] = target: T1, TLR4 (wild-type and point mutants, TLR4 C747A); experiment: NF-κB luciferase reporter assay in HEK293 cells expressing wild-type or mutant TLR4 after LPS stimulation; type: cell-based; parameters: expressed in transfected cells; host or cells: HEK293 (human embryonic kidney); conditions: concluded from reporter assay with TLR4 mutants, HEK293 (FIG. 3)
Description: (§4) Human embryonic kidney-derived HEK293 was suspended in DMEM containing 10% FCS, plated in a 96 well plate at 2×10^4 cells/well and cultured overnight at 37° C., 5% CO2. The medium was changed to OPTI-MEM (Invitrogen, 50 μL/well) immediately before transfection. A plasmid encoding FLAG-TLR4WT or a mutant thereof (0CA-3CA, PH, 1KR-9KR) was added to 0.5 ng/well, and transfection was performed using a PLUS reagent (Invitrogen) or a LipofectAMINE reagent (Invitrogen) according to a conventional method. The cells were cultured at 37° C., 5% CO2 for 3 hr. After culture, DMEM containing 20% FCS was added to 100 μL/well, and the cells were further cultured overnight to give forced expression cells. As common DNAs, pNiFty (plasmid for NF-κB activation measurement, 15 ng/well), phRL-TK (internal standard plasmid, 15 ng/well), MD-2 plasmid (10 ng/well) and CD14 plasmid (10 ng/well) were transfected together with wild-type TLR4 and each mutant.
(§5) The next day of the transfection, the medium of the forced expression cells was changed to DMEM containing 1% FCS, compound A (ethyl (6R)-6-[N-(2-chloro-4-fluorophenyl)sulfamoyl]-1-cyclohexene-1-carboxylate), compound B (d-ethyl 6-[N-(2,4-difluorophenyl)sulfamoyl]-1-cyclohexene-1-carboxylate), compound C (ethyl 6-[N-(2-bromo-4-fluorophenyl)sulfamoyl]-1-cyclohexene-1-carboxylate), compound D (d-ethyl 6-[(2-chloro-4-fluorobenzyl)sulfonyl]-1-cyclohexene-1-carboxylate) were added to the final concentration of 0, 30, 100, 300 nmol/L and the cells were cultured for 2 hr at 37° C., 5% CO2. LPS was added to 100 ng/mL, and the cells were further cultured for 4 hr. After culture, the luminescence of luciferase was measured using Dual-Glo™ Luciferase Assay System (Promega). For the measurement, the luminescence of firefly luciferase (derived from FL, NF-κB activation) and renilla luciferase (RL, internal standard) was measured, and CPS (counts per second) of FL was amended by CPS of RL to give FL/RL ratio.

[4] = target: T2, TLR4 (wild-type and point mutants, TLR4 C747A); experiment: as above; type: cell-based; parameters: expressed in transfected cells; host or cells: HEK293 (human embryonic kidney); conditions: 0, 30, 100, 300 nmol/L, 2 hr, then LPS 100 ng/mL 4 hr; HEK293; FL/RL ratio; only this mutant (FIG. 3)
Description: as §4, §5

[5] = target: T3, GST-TLR4 intracellular TIR domain fusion protein (Homo sapiens, UniProt O00206); experiment: Pull-down of GST fusion protein-bound beads with ^3H-compound A, SDS-PAGE, autoradiography; type: binding; conditions: beads reacted at 4° C. overnight; autoradiography (FIG. 1B)
T3 construct: made in house; host or cells: Escherichia coli
T3 sequence (O00206 674-839): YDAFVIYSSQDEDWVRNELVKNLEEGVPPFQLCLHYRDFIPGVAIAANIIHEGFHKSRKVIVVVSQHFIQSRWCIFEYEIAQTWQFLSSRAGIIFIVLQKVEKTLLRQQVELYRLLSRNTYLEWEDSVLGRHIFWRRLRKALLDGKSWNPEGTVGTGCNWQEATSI
Description: (§6) Using the above-mentioned primer DNA and TAKARA Ex Taq and after first standing at 95° C. for 2 min in a thermal cycler, PCR was performed 30 cycles with 95° C. for 30 sec, at 55° C. for 30 sec and at 72° C. for 1 min as one cycle. Lastly, an elongation reaction was performed at 72° C. for 10 min. The amplified DNA fragment was cloned using a TA Cloning Kit (Invitrogen). The obtained plasmid vector was treated with a restriction enzyme and electrophoresed on agarose gel. The band was cleaved out using a Sephaglas B and Prep Kit (Amersham) and purified. This was inserted as an insert into vector plasmid pGEX-4T-1 (Amersham) using DNA ligation kit Ver.2 (TAKARA).
(§7) Escherichia coli was transformed with the completed plasmid, and cultured in LB medium containing ampicillin (10 mL) at 37° C. for 18 hr. Culture medium (2.4 mL) was inoculated to LB medium containing ampicillin (130 mL), and subjected to shaking culture. When OD600 became amount 0.9, isopropyl-β-D-thiogalactopyranoside (1 mol/L) was added (130 μL), and the mixture was cultivated at 30° C. for 4 hr. After cultivation, the cells were collected and 10 mL of Lysis Buffer (10 mmol/L Tris pH 7.5, […], 0.5% triton-X-100, 1 mmolp/L PMSF) was added. The cells were disrupted by ultrasonication and centrifuged. To the obtained supernatant was added Glutathione Sepharose 4B (Amersham, 300 μL), and the mixture was gently shaken at 4° C. for 60 min. After the reaction, GST fusion protein-bound beads were washed with TBS (Tris buffered saline, 50 mM Tris-HCl pH7.5, 150 mM NaCl) added with 0.1% Triton X-100.
(§8) The completed GST fusion protein-bound beads and ^3H-compound A (synthesized by Amersham) were reacted at 4° C. overnight. After the reaction, the beads were washed with 0.1% Triton X-100 added TBS, a sample buffer for 5% 2-mercaptoethanol (ME)-containing sodium dodecyl sulfate (SDS)-polyacrylamide gel electrophoresis (PAGE) was added, and the mixture was heated at 100° C. for 5-10 min. The mixture was centrifuged, the supernatant was separated as a labeled protein sample, and the protein was separated by SDS-PAGE. […]

[6] = target: T4, GST-TLR2 intracellular TIR domain fusion protein (Homo sapiens, UniProt O60603); experiment: as above; type: binding; conditions: beads reacted at 4° C. overnight; autoradiography (FIG. 1B)
T4 construct: GST and TIR domain of TLR2; made in house; host or cells: Escherichia coli
T4 sequence (O60603 639-782 limits assumed): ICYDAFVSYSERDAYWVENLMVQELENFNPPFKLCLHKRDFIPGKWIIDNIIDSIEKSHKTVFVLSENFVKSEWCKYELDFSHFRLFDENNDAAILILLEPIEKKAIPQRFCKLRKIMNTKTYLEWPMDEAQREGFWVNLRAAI
Description: as §6, §7, §8

GST-TIRAP fusion protein = target: T5, GST-TIRAP fusion protein (Homo sapiens, UniProt P58753); experiment: as above; type: binding; conditions: beads reacted at 4° C. overnight; autoradiography (FIG. 1B)
T5 construct: made in house; host or cells: Escherichia coli
T5 sequence (P58753 1-235 isoform P58753-2): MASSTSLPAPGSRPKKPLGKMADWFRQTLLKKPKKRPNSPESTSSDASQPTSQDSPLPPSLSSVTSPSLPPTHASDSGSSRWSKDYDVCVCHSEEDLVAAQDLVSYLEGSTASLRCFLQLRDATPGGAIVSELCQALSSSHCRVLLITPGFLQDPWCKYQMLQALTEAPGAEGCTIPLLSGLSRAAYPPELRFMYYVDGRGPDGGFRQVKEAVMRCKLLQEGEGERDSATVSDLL
Description: as §6, §7, §8

Row | binding site of compound A in TLR4 [1] | binding amount of ^3H-compound A to TLR4 with 747th cysteine mutated to alanine [2] | binding site in TLR4 through which the signal is suppressed [3] | signal suppressing action when 747th cysteine of TLR4 mutated to alanine [4] | binding of ^3H-compound A to GST-TLR4 intracellular TIR domain fusion protein [5] | binding of ^3H-compound A to GST-TLR2 intracellular TIR domain fusion protein [6] | binding of ^3H-compound A to GST-TIRAP fusion protein (GST-TIRAP fusion protein) | Compound
1 | selectively bound to the 747th cysteine | remarkably decreased | selectively bind to the 747th cysteine | disappeared | selectively bound | not bound | not bound | CCOC(=O)C1=CCCC[C@H]1S(=O)(=O)Nc1ccc(F)cc1Cl [compound A, ethyl (6R)-6-[N-(2-chloro-4-fluorophenyl)sulfamoyl]-1-cyclohexene-1-carboxylate]
2 | – | – | selectively bind to the 747th cysteine | disappeared | – | – | – | CCOC(=O)C1=CCCCC1S(=O)(=O)Nc1ccc(F)cc1F (stereo not drawn) [compound B, d-ethyl 6-[N-(2,4-difluorophenyl)sulfamoyl]-1-cyclohexene-1-carboxylate]
3 | – | – | selectively bind to the 747th cysteine | disappeared | – | – | – | CCOC(=O)C1=CCCCC1S(=O)(=O)Nc1ccc(F)cc1Br (stereo not shown) [compound C, ethyl 6-[N-(2-bromo-4-fluorophenyl)sulfamoyl]-1-cyclohexene-1-carboxylate]
4 | – | – | selectively bind to the 747th cysteine | disappeared | – | – | – | CCOC(=O)C1=CCCCC1S(=O)(=O)Cc1ccc(F)cc1Cl (stereo not drawn) [compound D, d-ethyl 6-[(2-chloro-4-fluorobenzyl)sulfonyl]-1-cyclohexene-1-carboxylate]
